Reference: patent publication US20060263895A1, “Method for monitoring the stereoselectivity and relative rate of organic chemical reactions” (priority 2005, published 2006)

Columns and labels:
[1] = [total 1,2-propanediol] in aqueous ISES layer by 1H NMR
Procedure: The concentration of 1,2-propanediol in the aqueous layer was estimated under typical ISES conditions using 1H NMR spectroscopy. The bilayer was prepared as usual for double cuvette-ISES (Section V), but for the substitution of D2O for H2O in the buffer, and the elimination of the dehydrogenase enzymes. After 15 min, the aqueous layer (300 μL of 500 μL total) was withdrawn and mixed with a fresh solution of imidazole of known concentration (also 300 μL in D2O), as an internal concentration standard. Accumulation of the 1H NMR spectrum, followed by integration and quantitation, provided an experimental measure of [total diol] in the aqueous reporting layer at t=15 minutes for the catalyst under investigation. The observed diol concentrations for ten catalysts examined in this way are collected in Table S6, below. These have been normalized to the value for the catalyst derived from salen 3b (arbitrarily assigned a rate of 1.0).

[2] = Double cuvette-ISES (in situ enzymatic screening) of Co(III)-salen mediated HKR of (±)-propylene oxide; conditions: for % ee of the 1,2-propanediol product, as predicted by double-cuvette ISES (upper number): bilayer of pH 8.6 buffer over 7.2 M epoxide in CHCl3, 0.25 mol % catalyst, 15-35 min, + = (S), − = (R)
Procedure: Aqueous reporting layers. containing TBADH/NADP+ (cuvette 1) and HLADH/NAD+ (cuvette 2), respectively, are then added. The increase in absorbance at 340 nm can be followed for several such sets in parallel by UV-vis spectrophotometry. The kinetic data are then used to make the double-cuvette ISES predictions.
A general procedure for double cuvette-ISES to estimate both enantioselectivities and relative rates for an array of catalysts being screened in parallel is presented below. The hydrolytic kinetic resolution (HKR) of (±) propylene oxide was chosen as model reaction.
Typically, quartz cuvettes with one cm light paths and with nominal one mL volumes were used. For each catalyst, a two cuvette screen was performed, with cuvette A containing HLADH, as (S)-propanediol-selective reporting enzyme, and cuvette B containing TBADH, as a (R)-propanediol-selective reporting enzyme. For each cuvette, the final volume was 800 μL (300 μL of organic layer; 500 μL of aqueous layer).
Both cuvettes A and B had the following composition: 150 μL (2.15 mmol) of (±)-propylene oxide (7.2 M in organic layer), 150 μL of CHCl3 and 0.25 mol % Co(III)-salen catalyst. The total organic layer volume was maintained as 300 μL in all catalyst screens.
(i) Cuvette A: 0.35 U HLADH (17.6 μL from a stock solution (0.02U/μL)), 7.2 mM β-NAD+(16.5 μL from a 220 mM stock) and 465.8 μL of 50 mM sodium pyrophosphate buffer, pH 8.8. The final pH was 8.6.
(ii) Cuvette B: 0.35 U TBADH (15.8 μL from a stock solution (0.022U/μL)) of, 2.2 mM β-NADP+ (5 μL from a 220 mM stock) and 479.5 μL of 50 mM sodium pyrophosphate buffer, pH 8.8. The final pH was 8.6. The total volume of the aqueous layer was maintained as 500 μL in both cuvettes in all ISES experiments.
C. Step by Step Protocol: A catalyst stock solution (22 μmol of catalyst in 620 μL CHCl3) was made up in a 1.5 ml microcentrifuge tube, and stored on ice, along with a stock of (±)-propylene oxide, in a separate tube. The organic layers were prepared by briefly vortexing 150 μL (5.4 μmol, 0.25 mol %) of the catalyst stock in CHCl3 with 150 μL (2.15 mmol) of (±)-propylene oxide in iced microcentrifuge tubes. These were loaded into 1 mL quartz cuvettes using precooled (refrigerator), disposable 1 mL syringes. The aqueous layers were then layered on top of the organic layers, by syringe, down the walls of the cuvette.

[3] = HKR of (±)-propylene oxide under standard neat 'Jacobsen conditions' (NMR conversion, chiral HPLC ee); conditions: for NMR conv. (time) / % ee (HPLC): loading 0.25 mol %; for % ee (HPLC) / % ee of the 1,2-propanediol product, as observed by chiral HPLC (lower number): + = (S), − = (R); for % ee of the 1,2-propanediol product, as observed by chiral HPLC (lower number): neat propylene oxide, 0.55 equiv. H2O, 0.25 mol % catalyst, 3 h reaction time
Procedure: Salens in the fully synthetic, 42 member focused library that led to catalysts with appreciable activity, as indicated by double cuvette-ISES, were also evaluated ‘outside of the cuvette,’ under conditions more typically employed in HKR reactions. Specifically, these Co(III)-salen catalysts were evaluated in the HKR of (±)-propylene oxide, under neat conditions, similar to those described by Jacobsen and coworkers. Reactions were arbitrarily stopped after 3 hours, to obtain the enantiopurity of the 1,2-propanediol product at relatively early reaction times, for comparison with ISES predictions.
A typical procedure follows: To the Co(III)-salen catalyst derived from 7e (5.4 mg, 5.4 μmol, 0.25 mol %) and (±)-propylene oxide (125 mg, 2.15 mmol) at 0° C., was added water (21 μL, 1.18 mmol, 0.55 equiv.). The reaction mixture was securely capped, and allowed to warm to room temperature and stirred, most commonly for a total of 3 hours. Percent conversion at 3 hours was evaluated by 1H NMR of an aliquot (cooled to 0° C. for the transfer), in CDCl3. In most of these cases, the conversion was low enough after 3 hours, that the unreacted epoxide (bp 32° C.) was of relatively low ee, and was therefore removed by evaporation under aspirator vacuum. When the conversion was less than 5% by NMR after 3 hours, reactions were continued for longer times.
Upon termination of the reaction, the diol product was isolated by Kugelrohr distillation (˜120° C.-oven temp; 0.1 torr). To determine ee, the isolated diol was derivatized using p-bromobenzoyl imidazole (2.2 equiv.) in THF in the presence of NaH (4 equiv.) at room temperature for 5 min. The bis(p-bromobenzoate) esters obtained following sequential washes with 1 N HCl and saturated sodium bicarbonate, were of sufficient purity to be used directly for chiral HPLC analysis (Chiralcel OD, 99% […]). [drawing 23] [drawing 24] [drawing 25] [drawing 26] [drawing 27]

[4] = reaction stopped at the time given (mostly 3 h)

Compound | % ee of the 1,2-propanediol product, as predicted by double-cuvette ISES (upper number) [2] | NMR conv. (time) ([3]; 3 h) | % ee (HPLC) [3, 4] | % ee of the 1,2-propanediol product, as observed by chiral HPLC (lower number) [3] | further results
CC(C)(C)c1cc(C=NC[C@@H](N=Cc2cc(C(C)(C)C)cc(C(C)(C)C)c2O)c2ccccc2)c(O)c(C(C)(C)C)c1 [Salen 2a, N,N′-Bis(3′,5′-di-tert-butylsalicylidene)-(1S)-phenyl-1,2-ethylenediamine] | −97 % ee | 17 (3 h) % | −93 (R) % ee | −93 % ee | [diol] (mM) @ 15 min ([1]; aqueous ISES layer, 1H NMR, t = 15 min): 27.5 mM; Norm. ([1]; normalized to the catalyst derived from salen 3b (rate 1.0)): 0.29
CC(C)(C)c1cc(C=NC[C@H](Cc2ccccc2)N=Cc2cc(C(C)(C)C)cc(C(C)(C)C)c2O)c(O)c(C(C)(C)C)c1 [Salen 3a, N,N′-Bis(3′,5′-di-tert-butylsalicylidene)-(1S)-benzyl-1,2-ethylenediamine] | +48 % ee | 46 (3 h) % | +55 (S) % ee | +55 % ee | –
Oc1ccc2ccccc2c1C=NC[C@H](Cc1ccccc1)N=Cc1c(O)ccc2ccccc12 [Salen 3c, N,N′-Bis(2′-hydroxy-1′-naphthylidene)-(1S)-benzyl-1,2-ethylenediamine] | – | – | – | – | ISES signal ([2]; over 35 min): § (These catalysts gave ISES signals <20 mAbs min−1 over 35 min.); NMR conv. (time) ([3]; time not given): none obs
Oc1c(C=NC[C@H](Cc2ccccc2)N=Cc2ccc3ccccc3c2O)ccc2ccccc12 [Salen 3d, N,N′-Bis(1′-hydroxy-2′-naphthylidene)-(1S)-benzyl-1,2-ethylenediamine] | −54 % ee | 10 (3 h) % | −30 (R) % ee | −30 % ee | –
Oc1c(I)cc(I)cc1C=NC[C@H](Cc1cccc2ccccc12)N=Cc1cc(I)cc(I)c1O [Salen 4e, N,N′-Bis(3′,5′-diiodosalicylidene)-(1S)-(α-naphthylmethyl)-1,2-ethylenediamine] | +43 % ee | – | +14 (S) % ee | +14 % ee | ISES rate in the HLADH cuvette ([2]; over 35 min): 18.1 mAbs min−1; NMR conv. (time) ([3]; 24 h): 6 (24 h) %
Oc1cc(OCc2ccccc2)ccc1C=NC[C@H](Cc1cccc2ccccc12)N=Cc1ccc(OCc2ccccc2)cc1O [Salen 4f, N,N′-Bis(4′-benzyloxysalicylidene)-(1S)-(α-naphthylmethyl)-1,2-ethylenediamine] | +57 % ee | – | +51 (S) % ee | +51 % ee | NMR conv. (time) ([3]; 21 h): 24 (21 h) %
Oc1c(I)cc(I)cc1C=NC[C@H](Cc1ccc2ccccc2c1)N=Cc1cc(I)cc(I)c1O [Salen 5e, N,N′-Bis(3′,5′-diiodosalicylidene)-(1S)-(β-naphthylmethyl)-1,2-ethylenediamine] | +35 % ee | 3 (3 h) % | −5 (R) % ee | −5 % ee | –
CO[C@H]1[C@@H]2OC(C)(C)O[C@@H]2COC1(CN=Cc1cc(C(C)(C)C)cc(C(C)(C)C)c1O)N=Cc1cc(C(C)(C)C)cc(C(C)(C)C)c1O (stereo partly drawn) [Salen 6a, N,N′-Bis(3′,5′-di-tert-butylsalicylidene)-3-O-methyl-4,5-O-isopropylidene-1,2-dideoxy-Dfructopyranosyl-1,2-diamine] | – | – | – | – | % ee of the 1,2-propanediol product, as predicted by double-cuvette ISES (upper number) ([2]; listed as 6a*): +77 % ee; NMR conv. (time) ([3]; 3 h, listed as 6a*): 12 (3 h) %; % ee (HPLC) ([3]; reaction stopped at the time printed in the row (mostly 3 h), listed as 6a*): +69 (S) % ee; % ee of the 1,2-propanediol product, as observed by chiral HPLC (lower number) ([3]; listed as 6a*): +69 % ee
CO[C@H]1[C@@H]2OC(C)(C)O[C@@H]2COC1(CN=Cc1cccc(C(C)(C)C)c1O)N=Cc1cccc(C(C)(C)C)c1O (stereo partly drawn) [Salen 7b, N,N′-Bis(3′-tert-butylsalicylidene)-3-O-methyl-4,5-O-isopropylidene-1,2-dideoxy-Dfructopyranosyl-1,2-diamine] | −28 % ee | 9 (3 h) % | −40 (R) % ee | −40 % ee | –
CO[C@H]1[C@@H]2OC(C)(C)O[C@@H]2COC1(CN=Cc1c(O)ccc2ccccc12)N=Cc1c(O)ccc2ccccc12 (stereo partly drawn) [Salen 7c, N,N′-Bis(2′-hydroxy-1′-naphthylidene)-3-O-methyl-4,5-O-isopropylidene-1,2-dideoxy-Dfructopyranosyl-1,2-diamine] | – | – | – | – | ISES signal ([2]; over 35 min): § (These catalysts gave ISES signals <20 mAbs min−1 over 35 min.); NMR conv. (time) ([3]; time not given): none obs
N,N′-Bis(3′-tert-butylsalicylidene)-[1R-(1α,2α,5α)]-2-amino-7,7-dimethyl-2-bicyclo[3.3.1]heptaneethanamine [Salen 1b] | +68 % ee | – | +75 (S) % ee | +75 % ee | –
